Measurements: patent publication EP3301100A1, “ORGANOMETALLIC FLUCONAZOLE DERIVATES AND THEIR USE AS ANTIMYCOTICS” (Universität Zürich, priority 2016, dated 2018)
In brackets after ≈: the same amount, converted by molar mass.

How the values were obtained:
[1] = tested on: A. glaucus; test: Antifungal activity on pathological isolated strain (EUCAST susceptibility testing, MIC50); type: cell-based, Aspergillus glaucus; details: ≥ 50% inhibition of growth after 48 h incubation
Protocol: (§1) In vivo studies were performed on pathological isolated strains. […] The compounds of the present invention were tested against Candida albicans, its azole-resistant type and three different pathologic fungi, namely Penicillumpaneum, Aspergillus glaucus and Trichosporonasahi (see table 2). […] Table 2: In vivo antifungal activity
(§2) Candida strains were tested for their susceptibility to the azole (7 dilution series, ranging from 1 mM to 0.01 mM) following the European Committee for Antimicrobial Susceptibility Testing protocol (EUCAST Definitive Document EDef 7.2 Revision, 2012). Briefly, cells were grown in RPMI1640 medium supplied with 2.0% glucose, counted and inoculated at a concentration of 1-5 x 10^5 CFU/ml.

[2] = tested on: C. albicans (res. Strains); test: as above; type: cell-based, Candida albicans; details: for MIC50: C. albicans (res. Strains), azole-resistant, ≥ 50% inhibition of growth after 48 h incubation
Protocol: as §1, §2

[3] = tested on: Candida albicans; test: as above; type: cell-based; details: C. albicans, ≥ 50% inhibition of growth after 48 h incubation
Protocol: as §1, §2

[4] = tested on: Candida Robusta; details: wild type C. robusta, agar, 24 h at 30 °C; result in words, comparison with the parent drug
Protocol: To evaluate the antifungal acitivty of the new drug candidates, a well-plate based assay was used. The first investigation of antimycotic activity has been performed on a well-known model, namely Candida Robusta. Wild type colony of C. robusta was cultured and diluted to start the growing phase just before treatment and then seeded at different concentrations on the agar terrain poured with different concentrations of the target complexes and incubated for 24 h at 30 °C.
Wild type C. robusta was freshly inoculated and cultured in autoclaved YPD buffer containing 2% bacto peptone, 1% bacto yeast extract and 2% glucose anhydrous at 30°C (Kuehner shaker Labtherm, Kuehner Switzerland).
Briefly, one day before treatment, an aliquot of wild type C. robustawas inoculated in 5 mL YPD buffer solution (see above) and incubated overnight at 30°C. The fungal proliferation was then quantified at 600 nm in a Cary60 UV/Vis (Agilent Technologies). The SC was then seeded at different concentrations of the yeast (representing OD of 0.2, 0.02, 0.002 and 0.0002 for different colony growth rate) in 24-wells plates containing 2 mL growing terrain. […] The fungal colony formation was monitored with Alpha Digitec camera (Bucher Biotec) and the colony density was calculated with Alphalmager software (v1.3.0.7) with multiplex band analysis mode / single tool. […]

[5] = tested on: T. asahi; test: Antifungal activity on pathological isolated strain (EUCAST susceptibility testing, MIC50); type: cell-based, Trichosporonasahi; details: ≥ 50% inhibition of growth after 48 h incubation
Protocol: as §1, §2

[6] = tested on: P. paneum; test: as above; type: cell-based, Penicillumpaneum; details: for MIC50: P. paneum, ≥ 50% inhibition of growth after 48 h incubation
Protocol: as §1, §2

[7] = tested on: human retinal pigment epithelial cell (RPE-1-hTert); test: cells
Protocol: In both topic and systemic applications, antimycotic drugs are getting in contact with patient tissues. It is therefore of utmost importance that new drug candidates display a lack of host toxicity. Thus, the antiproliferative effect of the new complexes were investigated in vitro on human retinal pigment epithelial cell (RPE-1-hTert). […] Table 1: Host cytotoxicity
Human fibroblast (MRC-5) and retinal pigment epithelial (RPE) cell lines were cultured in F-10 medium supplemented with 10% fetal calf serum (FCS, Gibco), 100 U/mL penicillin, 100 µg/mL streptomycin or DMEM medium (Gibco) supplemented with 10% fetal calf serum (FCS, Gibco), 100 U/mL penicillin, 100 µg/mL streptomycin, respectively, at 37 °C and 6% CO2.
Cytotoxicity studies of the compounds of the present invention were performed by a fluorometric cell viability assay using resazurin (Promocell GmbH). Briefly, one day before treatment the cells were plated in triplicate in 96-well plates at a density of 4 × 10^3 cells per well in 100 µL. Upon treating the cells with increasing concentrations of the compounds of the present invention, the cells were incubated for 48 h at 37 °C/6% CO2, the medium was removed, and 100 µL of complete medium containing resazurin (0.2 mg mL^-1 final concentration) was added. After 4 h of incubation at 37 °C/6% CO2, the fluorescence of the highly red fluorescent resorufin product was quantified at 590 nm emission with 540 nm excitation wavelength using a SpectraMax M5 Microplate Reader. The results were expressed as mean ± standard deviation error of independent experiments.

Row | MIC50 ([1]; Aspergillus glaucus) | MIC50 ([2]; Candida albicans) | MIC50 ([3]; Candida albicans) | SMILES | MIC50 [1] | MIC50 [2] | azole resistance ([2]; C. albicans resistant strain, result in words) | MIC50 [3] | antifungal activity [4] | MIC50 [5] | MIC50 [6] | antimycotic potency over the parent drug ([6]; e.g. P.paneum, factor versus fluconazole) | IC50 ([7]; RPE-1-hTert cells, 48 h incubation, resazurin, mean ± standard deviation error) | cell viability [7] | IC50 ([7]; Homo sapiens, Epithelial cell, 48 h)
1 | – | – | – | C[NH+](C[c-]1cccc1)CC(O)(Cn1cncn1)c1ccc(F)cc1F.[Cl-].[Fe+2].c1cc[cH-]c1 (stereo not drawn) [Methyl, syn/anti-N-(ferrocenylmethyl)-2-(2,4-difluorophenyl)-2-hydroxy-N-methyl-3-(1H-1,2,4-triazol-1-yl)propan-1-aminium chloride] | >1 µM | 0.7 µM | able to overcome azole resistance | 0.07 µM | highest antimycotic activity | 0.13 µM | 0.25 µM | ≤ 800 fold | – | – | –
2 | – | – | – | Cl.OC(CNC[c-]1cccc1)(Cn1cncn1)c1ccc(F)cc1F.[Fe+2].c1cc[cH-]c1 (stereo not drawn) [H, syn/anti-N-(ferrocenylmethyl)-2-(2,4-difluorophenyl)-2-hydroxy-3-(1H-1,2,4-triazol-1-yl)propan-1-aminium chloride] | – | – | – | – | – | – | – | – | > 100 µM | – | –
3 | 0.8 µM (≈ 0.245 µg/mL) | > 209 µM | 0.8 µM (≈ 0.245 µg/mL) | OC(Cn1cncn1)(Cn1cncn1)c1ccc(F)cc1F [Fluconazole] | – | – | – | – | – | 1.6 µM (≈ 0.49 µg/mL) | >209 µM | – | – | did not affect cell viability | > 100 µM
